# Assay results reported in US12110293B2, “Substituted triazolo quinoxaline derivatives” (GRÜNENTHAL GMBH, priority 2018, dated 2024).
# Target: T1, glucocorticoid receptor (Homo sapiens, UniProt P04150)
# T1 construct: expressed in transfected cells
# T1 sequence (P04150 524-758 limits assumed): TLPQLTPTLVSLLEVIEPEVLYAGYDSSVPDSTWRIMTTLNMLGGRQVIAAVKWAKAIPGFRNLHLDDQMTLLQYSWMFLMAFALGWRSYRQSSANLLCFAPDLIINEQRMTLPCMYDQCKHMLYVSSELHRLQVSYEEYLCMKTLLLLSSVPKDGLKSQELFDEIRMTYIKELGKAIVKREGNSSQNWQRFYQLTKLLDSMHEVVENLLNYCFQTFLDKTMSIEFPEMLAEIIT
# Assay: Agonistic mode of action on the glucocorticoid receptor (CHO-Gal4/GR luciferase reporter cell line)
# Assay type: cell-based
# Details: range class observed in the agonistic assay or the antagonistic assay (CHO-Gal4/GR reporter cells); table does not say which mode applies per example
# Summary of the method: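 CHO cells stably carrying GAL4 DBD–GR ligand-binding-domain fusion and GAL4-UAS firefly luciferase reporter, 5000 cells/well grown 24 h, then compounds added in Opti-MEM at 8 half-log concentrations from 10 μM to 0.003 μM (0.5% DMSO), quadruplicates. Agonist-induced luminescence read on FLIPR Tetra; EC50 calculated.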
row,Compound,IC50 or EC50 (agonist or antagonist mode not specified) [nM]
1,"Cc1nnc2n1-c1c(cc(F)c(-c3cc(F)cc4c3cnn4S(C)(=O)=O)c1C(F)(F)F)NC2(C)C [Example 454, 7-Fluoro-8-(6-fluoro-1-methylsulfonyl-1H-indazol-4-yl)-1,4,4-trimethyl-9-(trifluoromethyl)-5H-[1,2,4]triazolo[4,3-a]quinoxaline]",100 to 1000
2,"COc1cc2c(c(C(F)(F)F)c1-c1cc(F)cc3c(C)c[nH]c13)-n1c(C)nnc1C(C)(C)N2 [Example 459, 8-(5-Fluoro-3-methyl-1H-indol-7-yl)-7-methoxy-1,4,4-trimethyl-9-(trifluoromethyl)-5H-[1,2,4]triazolo[4,3-a]quinoxaline]",< 100
3,"COc1cc2c(c(F)c1-c1cccc3c(C)c[nH]c13)-n1c(C)nnc1C(C)(C)N2 [Example 266, 9-Fluoro-7-methoxy-1,4,4-trimethyl-8-(3-methyl-1H-indol-7-yl)-5H-[1,2,4]triazolo[4,3-a]quinoxaline]",100 to 1000
4,"COc1cc2c(c(C(F)(F)F)c1-c1cccc3c1ccn3S(C)(=O)=O)-n1c(C)nnc1C(C)(C)N2 [Example 310, 7-Methoxy-1,4,4-trimethyl-8-(1-methylsulfonyl-1H-indol-4-yl)-9-(trifluoromethyl)-5H-[1,2,4]triazolo[4,3-a]quinoxaline]",100 to 1000
5,"Cc1nnc2n1-c1c(cc(F)c(-c3cccc4c3cnn4C(=O)OC(C)(C)C)c1F)NC2(C)C [Example 238, 4-(7,9-Difluoro-1,4,4-trimethyl-5H-[1,2,4]triazolo[4,3-a]quinoxalin-8-yl)-1H-indazole-1-carboxylic acid tert-butyl ester]",100 to 1000

# Continued, values first:
row,IC50 or EC50 (agonist or antagonist mode not specified) [nM],Compound
1,100 to 1000,"CC#Cc1c[nH]c2c(-c3c(F)cc4c(c3C)-n3c(CO)nnc3C(C)(C)N4)cc(F)cc12 [Example 77, (7-fluoro-8-(5-fluoro-3-(prop-1-yn-1-yl)-1H-indol-7-yl)-4,4,9-trimethyl-4,5-dihydro-[1,2,4]triazolo[4,3-a]quinoxalin-1-yl)methanol]"
2,< 100,"Cc1nnc2n1-c1c(cc(F)c(-c3cccc4[nH]c(C(F)(F)F)cc34)c1F)NC2(C)C [Example 225, 7,9-Difluoro-1,4,4-trimethyl-8-[2-(trifluoromethyl)-1H-indol-4-yl]-5H-[1,2,4]triazolo[4,3-a]quinoxaline]"
3,< 100,"Cc1c[nH]c2c(-c3c(F)cc4c(c3C(F)F)-n3c(C)nnc3C(C)(C)N4)cc(F)cc12 [Example 302, 9-(Difluoro-methyl)-7-fluoro-8-(5-fluoro-3-methyl-1H-indol-7-yl)-1,4,4-trimethyl-5H-[1,2,4]triazolo[4,3-a]quinoxaline]"
4,1000 to 15000,"CCc1nnc2n1-c1c(cc(F)c(-c3cccc4c3ccn4S(C)(=O)=O)c1C)NC2(C)C [Example 247, 1-Ethyl-7-fluoro-4,4,9-trimethyl-8-(1-methylsulfonyl-1H-indol-4-yl)-5H-[1,2,4]triazolo[4,3-a]quinoxaline]"
5,< 100,"Cc1c(-c2cccc3c2ccn3C2CC2)c(Cl)cc2c1-n1c(C)nnc1C(C)(C)N2 [Example 533, 7-Chloro-8-(1-cyclopropyl-1H-indol-4-yl)-1,4,4,9-tetramethyl-5H-[1,2,4]triazolo[4,3-a] quinoxaline]"
6,100 to 1000,"Cc1cc2c(c(C)c1-c1cccc3c1ccn3CC(F)F)-n1c(C)nnc1C(C)(C)N2 [Example 324, 8-[1-(2,2-Difluoro-ethyl)-1H-indol-4-yl]-1,4,4,7,9-pentamethyl-5H-[1,2,4]triazolo[4,3-a]quinoxaline]"
7,100 to 1000,"Cc1c(-c2cccc3c2ccn3CC(F)F)c(Cl)cc2c1-n1c(C)nnc1C(C)(C)N2 [Example 327, 7-Chloro-8-[1-(2,2-difluoro-ethyl)-1H-indol-4-yl]-1,4,4,9-tetramethyl-5H-[1,2,4]triazolo[4,3-a]quinoxaline]"
